US5281585A, “Fibrinogen receptor antagonists for inhibiting aggregation of blood platelets” (Merck & Co., Inc., priority 1992, dated 1994)

How the values were obtained:
platelet aggregation [1] = experiment: In vivo activity in dogs: ex vivo platelet aggregation, intravenous infusion; design: species or system dog; conditions: 10 μg/kg/min and 25 μg/kg/min
Protocol: (§1) The following protocols were used to determine in vivo activity in dogs of fibrinogen receptor antagonists of the present invention.
(§2) A mongrel dog of either sex (weighing 7.5 to 11.5 kg) is comfortably positioned in a nylon sling which exposes the legs and keeps the dog stationary. Five ml of blood is withdrawn from either saphenous or cephalic veins with a plastic syringe containing 0.5 ml of 3.8% citrate via a 19-gauge butterfly. An additional I ml of citrated blood is taken to measure whole blood platelet counts. Ex vivo platelet aggregations are done with the agonists ADP (10 μM) and collagen (10 μg/ml) both primed with 1μM epinephrine. Platelet-rich plasma (PRP) is obtained by centrifuging the blood at 150 x g for 5 minutes. Platelet counts are adjusted to 200,000/mm^3 with platelet-poor plasma.
For the intravenous infusion, blood samples for ex vivo platelet aggregation are taken at the following time points: 0,30, 45, 60, 90 and 120 min into the infusion and 2,5, 15, 30, 60, 90, 120, 180, 240, 300, 360, and 420 minutes after the infusion stops. At each time point, the remaining platelet-poor plasma is saved and frozen for drug levels. The drug is infused for 120 minutes at a constant rate of 0.1 ml/min.
(§3) In the oral and intravenous groups, blood collection times are recorded at each time point in order to determine drug plasma levels.

platelet aggregation [2] = experiment: In vivo activity in dogs: ex vivo platelet aggregation, oral administration; design: species or system dog; conditions: single oral administration of 2 mg/kg, for a period of eight hours
Protocol: as §1, §2
Oral administration of a drug is done either as a gelatin capsule or a gastric lavage. For the gastric lavage method, 5 ml of the drug solution is administered to the dog through a feeding tube. Blood samples for ex vivo platelet aggregation are taken at the following time points: 0,20, 40, 70, 90, 150, 200, 250, 300, 350, 480 min. 24 hr. 30 hr, and 48 hr. At each time point, the remaining platelet-poor plasma is saved and frozen for drug levels. […]
as §3

O=C(O)CCNC(=O)CN1CCCC(CCC2CCNCC2)C1=O (stereo not drawn)
Inhibition of platelet aggregation (% of control) during infusion (platelet aggregation [1]; during infusion): nearly complete
Inhibition of platelet aggregation (% of control) after infusion cessation (platelet aggregation [1]; for several hours after infusion cessation): partial inhibition
% Inhibition of platelet aggregation (platelet aggregation [2]): greater than 50%
